Results reported in patent publication US20230146675A1, “PYRIMIDO[5,4-d]PYRIMIDINE DERIVATIVES AS ENT INHIBITORS FOR THE TREATMENT OF CANCERS, AND COMBINATION THEREOF WITH ADENOSINE RECEPTOR ANTAGONISTS” (ITEOS BELGIUM SA, priority 2020, published 2023).
pIC50: −log10 of the molar value.

Molecular target: T1, human ENT1 (Homo sapiens, UniProt Q99808)
T1 sequence (Q99808 1-456): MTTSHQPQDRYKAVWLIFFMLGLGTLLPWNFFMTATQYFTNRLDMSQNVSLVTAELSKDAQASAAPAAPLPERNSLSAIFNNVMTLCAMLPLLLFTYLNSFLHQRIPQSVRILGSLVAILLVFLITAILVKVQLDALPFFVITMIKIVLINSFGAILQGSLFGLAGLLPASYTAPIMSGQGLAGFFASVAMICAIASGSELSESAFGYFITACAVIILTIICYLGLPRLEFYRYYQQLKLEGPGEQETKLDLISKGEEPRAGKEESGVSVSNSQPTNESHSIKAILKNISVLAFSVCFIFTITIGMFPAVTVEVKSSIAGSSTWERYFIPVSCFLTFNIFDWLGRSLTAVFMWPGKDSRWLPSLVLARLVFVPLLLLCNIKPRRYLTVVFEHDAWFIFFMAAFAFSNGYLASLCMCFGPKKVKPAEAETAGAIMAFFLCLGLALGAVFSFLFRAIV
Assay: ENT1 binding assay (competition with Sahenta-DY647 on JAR cells)
Set-up: JAR cells expressing ENT1 were bought from ATCC; host or cells: JAR cells
Details: binned IC50
Experimental: Purpose. […] By measuring the fluorescence at the end of the assay we could assess the binding potency of the compounds of the present invention.
JAR cells were resuspended in the described buffer. Compounds of the present invention and Sahenta-DY647 were diluted 200× in the described buffer.
The total volume of the reaction was 100 μL (50 μL of cells, 25 μL of the compounds of the present invention and 25 μL of Sahenta-DY647) in a 96 well plate, U-bottom (Greiner®, #650-180). The plates were washed 2× by centrifugation (4 min, 400 rcf at 4° C.) in the same buffer.

| Structure (SMILES) | pIC50 |
| --- | --- |
| COCCN(CCOC)c1nc(N2CCN(c3ncn(C)n3)CC2)c2nc(N(CCOC)CCOC)nc(NCc3cccc(OC(F)(F)F)c3)c2n1 [Compound 223, N2,N2,N6,N6-tetrakis(2-methoxyethyl)-8-(4-(1-methyl-1H-1,2,4-triazol-3-yl)piperazin-1-yl)-N4-(3-(trifluoromethoxy)benzyl)pyrimido[5,4-d]pyrimidine-2,4,6-triamine] | > 7.00 |
| COCCN(CCOC)c1nc(N2CCN(c3ncn(C)n3)CC2)c2nc(N(CCOC)CCOC)nc(N(C)Cc3ccc(F)c(F)c3)c2n1 [Compound 247, N4-(3,4-difluorobenzyl)-N2,N2,N6,N6-tetrakis(2-methoxyethyl)-N4-methyl-8-(4-(1-methyl-1H-1,2,4-triazol-3-yl)piperazin-1-yl)pyrimido[5,4-d]pyrimidine-2,4,6-triamine] | 6.30 to 7.00 |
| COCCN(CCOC)c1nc(N2CCC(OC)CC2)c2nc(N3CCn4ccnc4C3)nc(N3CCN(C)C(=O)C3)c2n1 [Compound 295, 4-(6-(bis(2-methoxyethyl)amino)-2-(5,6-dihydroimidazo[1,2-a]pyrazin-7(8H)-yl)-8-(4-methoxypiperidin-1-yl)pyrimido[5,4-d]pyrimidin-4-yl)-1-methylpiperazin-2-one] | 6.30 to 7.00 |
| COCCN(CCOC)c1nc(N2CCC(OC)CC2)c2nc(N(CCOC)CCOC)nc(N(C)CC(C)C)c2n1 [Compound 168, N4-isobutyl-N2,N2,N6,N6-tetrakis(2-methoxyethyl)-8-(4-methoxypiperidin-1-yl)-N4-methylpyrimido[5,4-d]pyrimidine-2,4,6-triamine] | > 7.00 |
| COCCN(CCOC)c1nc(N2CCC(OC)CC2)c2nc(N(CCOC)CCOC)nc(NCc3cccc(F)c3)c2n1 [Compound 142, N4-(3-fluorobenzyl)-N2,N2,N6,N6-tetrakis(2-methoxyethyl)-8-(4-methoxypiperidin-1-yl)pyrimido[5,4-d]pyrimidine-2,4,6-triamine] | > 7.00 |
| COCCN(CCOC)c1nc(N2CCN(C)C(=O)C2)c2nc(N(CCO)CCOC)nc(N3CCC(OC)CC3)c2n1 [Compound 276, 4-(2-(bis(2-methoxyethyl)amino)-6-((2-hydroxyethyl)(2-methoxyethyl)amino)-8-(4-methoxypiperidin-1-yl)pyrimido[5,4-d]pyrimidin-4-yl)-1-methylpiperazin-2-one] | 6.30 to 7.00 |
| COCCN(CCOC)c1nc(N2CCCCC2)c2nc(N(CCO)CCO)nc(N3CCN(c4nccs4)CC3)c2n1 [Compound 39, 2,2′-((6-(bis(2-methoxyethyl)amino)-8-(piperidin-1-yl)-4-(4-(thiazol-2-yl)piperazin-1-yl)pyrimido[5,4-d]pyrimidin-2-yl)azanediyl)diethanol] | > 7.00 |
| COCCN(CCOC)c1nc(N2CCC(OC)CC2)c2nc(N(CCOC)CCOC)nc(NCc3nccs3)c2n1 [Compound 58, N2,N2,N6,N6-tetrakis(2-methoxyethyl)-8-(4-methoxypiperidin-1-yl)-N4-(thiazol-2-ylmethyl)pyrimido[5,4-d]pyrimidine-2,4,6-triamine] | 6.00 to 6.30 |
| COCCN(CCn1ccnc1)c1nc(N2CCN(C)C(=O)C2)c2nc(N(CCOC)CCOC)nc(N3CCC(OC)CC3)c2n1 [Compound 285, 4-(2-((2-(1H-imidazol-1-yl)ethyl)(2-methoxyethyl)amino)-6-(bis(2-methoxyethyl)amino)-8-(4-methoxypiperidin-1-yl)pyrimido[5,4-d]pyrimidin-4-yl)-1-methylpiperazin-2-one] | 6.30 to 7.00 |
| COCCN(CCOC)c1nc(N2CCC(OC)CC2)c2nc(N(CCOC)CCOC)nc(N3CCOCC3)c2n1 [Compound 69, N2,N2,N6,N6-tetrakis(2-methoxyethyl)-4-(4-methoxypiperidin-1-yl)-8-morpholinopyrimido[5,4-d]pyrimidine-2,6-diamine] | 6.00 to 6.30 |
| COCCN(CCOC)c1nc(N2CCC(OC)CC2)c2nc(N(CCOC)CCOC)nc(OCc3cc(OC)cc(OC)c3)c2n1 [Compound 152, 4-((3,5-dimethoxybenzyl)oxy)-N2,N2,N6,N6-tetrakis(2-methoxyethyl)-8-(4-methoxypiperidin-1-yl)pyrimido[5,4-d]pyrimidine-2,6-diamine] | > 7.00 |
| COCCN(CCOC)c1nc(N2CCC(OC)CC2)c2nc(N(CCOC)CCOC)nc(NCc3ccc(Cl)c(Cl)c3)c2n1 [Compound 137, N4-(3,4-dichlorobenzyl)-N2,N2,N6,N6-tetrakis(2-methoxyethyl)-8-(4-methoxypiperidin-1-yl)pyrimido[5,4-d]pyrimidine-2,4,6-triamine] | > 7.00 |
| COCCN(CCOC)c1nc(N2CCn3ncnc3C2)c2nc(N(CCOC)CCOC)nc(N3CCN(C)C(=O)C3)c2n1 [Compound 5, 4-(2,6-bis(bis(2-methoxyethyl)amino)-8-(5,6-dihydro-[1,2,4]triazolo[1,5-a]pyrazin-7(8H)-yl)pyrimido[5,4-d]pyrimidin-4-yl)-1-methylpiperazin-2-one] | > 7.00 |
| COCCN(CCOC)c1nc(N2CCn3cncc3C2)c2nc(N(CCOC)CCOC)nc(N3CCC(OC)CC3)c2n1 [Compound 114, 4-(5,6-dihydroimidazo[1,5-a]pyrazin-7(8H)-yl)-N2,N2,N6,N6-tetrakis(2-methoxyethyl)-8-(4-methoxypiperidin-1-yl)pyrimido[5,4-d]pyrimidine-2,6-diamine] | > 7.00 |
| CCN(CCN1CCCCC1)c1nc(N2CCC(OC)CC2)c2nc(N(CCOC)CCOC)nc(N3CCC(OC)CC3)c2n1 [Compound 133, N2-ethyl-N6,N6-bis(2-methoxyethyl)-4,8-bis(4-methoxypiperidin-1-yl)-N2-(2-(piperidin-1-yl)ethyl)pyrimido[5,4-d]pyrimidine-2,6-diamine] | 6.00 to 6.30 |
| COCCN(CCOC)c1nc(N2CC(F)(F)C2)c2nc(N(CCOC)CCOC)nc(N3CCC(OC)CC3)c2n1 [Compound 105, 4-(3,3-difluoroazetidin-1-yl)-N2,N2,N6,N6-tetrakis(2-methoxyethyl)-8-(4-methoxypiperidin-1-yl)pyrimido[5,4-d]pyrimidine-2,6-diamine] | 6.30 to 7.00 |
| COCCN(CCOC)c1nc(N2CCC(OC)CC2)c2nc(N(CCO)CCO)nc(N3CC(=O)N4CCCC4C3)c2n1 (stereo not drawn) [Compound 313, 2-(2-(bis(2-hydroxyethyl)amino)-6-(bis(2-methoxyethyl)amino)-8-(4-methoxypiperidin-1-yl)pyrimido[5,4-d]pyrimidin-4-yl)hexahydropyrrolo[1,2-a]pyrazin-4(1H)-one] | 6.30 to 7.00 |
| COCCN(CCOC)c1nc(N2CCC(OC)CC2)c2nc(N(CCOC)CCOC)nc(NCCCCC#N)c2n1 [Compound 179, 5-((2,6-bis(bis(2-methoxyethyl)amino)-8-(4-methoxypiperidin-1-yl)pyrimido[5,4-d]pyrimidin-4-yl)amino)pentanenitrile] | 6.30 to 7.00 |
| CCNc1nc(N(CCOC)CCOC)nc2c(N3CCC(OC)CC3)nc(N(CCOC)CCOC)nc12 [Compound 126, N4-ethyl-N2,N2,N6,N6-tetrakis(2-methoxyethyl)-8-(4-methoxypiperidin-1-yl)pyrimido[5,4-d]pyrimidine-2,4,6-triamine] | 6.00 to 6.30 |
| COCCN(CCOC)c1nc(N2CCN(c3nccc(C)n3)CC2)c2nc(N(CCOC)CCOC)nc(N3CCC(OC)CC3)c2n1 [Compound 122, N2,N2,N6,N6-tetrakis(2-methoxyethyl)-4-(4-methoxypiperidin-1-yl)-8-(4-(4-methylpyrimidin-2-yl)piperazin-1-yl)pyrimido[5,4-d]pyrimidine-2,6-diamine] | 6.30 to 7.00 |
| COCCN(CCOC)c1nc(N2CCC(OC)CC2)c2nc(N(CCO)CCO)nc(N3CCN(C)C(=O)C3)c2n1 [Compound 270, 4-(2-(bis(2-hydroxyethyl)amino)-6-(bis(2-methoxyethyl)amino)-8-(4-methoxypiperidin-1-yl)pyrimido[5,4-d]pyrimidin-4-yl)-1-methylpiperazin-2-one] | 6.30 to 7.00 |
| COCCN(CCOC)c1nc(N2CCN(c3ncn(C)n3)CC2)c2nc(N(CCOC)CCOC)nc(N(C)Cc3cccc(C(N)=O)c3)c2n1 [Compound 249, 3-(((2,6-bis(bis(2-methoxyethyl)amino)-8-(4-(1-methyl-1H-1,2,4-triazol-3-yl)piperazin-1-yl)pyrimido[5,4-d]pyrimidin-4-yl)(methyl)amino)methyl)benzamide] | 6.30 to 7.00 |
| COCCN(CCOC)c1nc(N2CCC(OC)CC2)c2nc(N(CCOC)CCOC)nc(NCc3ccc(Cl)c(C#N)c3)c2n1 [Compound 150, 5-(((2,6-bis(bis(2-methoxyethyl)amino)-8-(4-methoxypiperidin-1-yl)pyrimido[5,4-d]pyrimidin-4-yl)amino)methyl)-2-chlorobenzonitrile] | > 7.00 |
| COCCN(CCOC)c1nc(N2CCC(OC)CC2)c2nc(N3CCN(c4ncccc4N)CC3)nc(N3CCN(C)C(=O)C3)c2n1 [Compound 293, 4-(2-(4-(3-aminopyridin-2-yl)piperazin-1-yl)-6-(bis(2-methoxyethyl)amino)-8-(4-methoxypiperidin-1-yl)pyrimido[5,4-d]pyrimidin-4-yl)-1-methylpiperazin-2-one] | 6.30 to 7.00 |
